Assays:
[1] = Percent Reduction of Malodor Intensity; conditions: 10% in water
Source text: (iii) Malodor counteracting effect of Compounds 1-6 (10% in water) was further evaluated and their respective “Percent Reduction of Malodor Intensity” was reported in the following: […]

[2] = Malodor counteracting effect, scale of 0 to 5; conditions: 10% in water; scale of 0 to 5, 0=none, 1=minimal effect, 5=the highest possible effect
Description: (ii) Malodor counteracting effect was evaluated using a scale of 0 to 5, where 0=none, 1=minimal effect and 5=the highest possible effect. High coverage of mold/mildew and sweat malodors by Compounds 1-6 (10% in water) was reported in the following: […]

Compound	Percent Reduction of Malodor Intensity, Bathroom [1]	Percent Reduction of Malodor Intensity, Mold/Mildew [1]	Percent Reduction of Malodor Intensity, Smoke [1]	Percent Reduction of Malodor Intensity, Sweat [1]	Malodor counteracting effect, Mold/Mildew [2]	Malodor counteracting effect, Sweat [2]
COC1CCC(C(C)C)CC1 (stereo not drawn) [Compound 1, 1-methoxy-4-(methylethyl)-cyclohexane]	92%	88%	84%	83%	4.62	4.51
CCCCCCOC1CCC(C)(C)O1 (stereo not drawn) [Compound 4, 5-hexyloxy-2,2-dimethyl-tetrahydro-furan]	83%	74%	76%	79%	4.27	4.53
CCOC1C(C)CCCC1C (stereo not drawn) [Compound 2, 2-ethoxy-1,3-dimethyl-cyclohexane]	90%	79%	87%	90%	4.44	4.56
CC(C)CC1OC(C)CCC1C(C)CC=O (stereo not drawn) [Compound 3, 3-[6-methyl-2-(2-methylpropyl)tetrahydro-2H-pyran-3-yl]butanal]	85%	81%	82%	86%	4.08	4.15
CC(=O)C(C)C(C)C(C)C (stereo not drawn) [Compound 6, 3,4,5-trimethyl-hexan-2-one]	87%	90%	84%	83%	4.04	4.30
CC(C)C(C)C(C)C(C)O (stereo not drawn) [Compound 5, 3,4,5-trimethyl-hexan-2-ol]	92%	80%	83%	85%	4.22	4.47

Reference: patent US10549006B2, “High-coverage, low odor malodor counteractant compounds and methods of use” (International Flavors & Fragrances Inc., priority 2014, dated 2020)
